# According to paper PMC6199744, “Development of Chemical Proteomics for the Folateome and Analysis of the Kinetoplastid Folateome” (ACS Infectious Diseases, 2018):
# Read-outs that look alike come from different tables or passages of the source.
# Columns and labels:
# Format in all cases: binding
# [1] = biological target: T1, HeLa cell extract proteins (Homo sapiens, UniProt O75152)
# T1 construct: endogenous in cells; host or cells: HeLa cell extract
# [2] = biological target: T2, HeLa cell extract proteins (Homo sapiens, UniProt Q06830)
# T2 construct: endogenous in cells; host or cells: HeLa cell extract
# T2 sequence (Q06830 1-199): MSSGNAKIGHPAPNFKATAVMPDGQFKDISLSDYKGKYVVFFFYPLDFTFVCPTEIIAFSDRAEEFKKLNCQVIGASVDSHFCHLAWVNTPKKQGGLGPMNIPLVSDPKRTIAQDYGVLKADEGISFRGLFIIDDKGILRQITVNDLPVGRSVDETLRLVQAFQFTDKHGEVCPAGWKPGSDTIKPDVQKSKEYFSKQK
# [3] = biological target: T3, HeLa cell extract proteins (Homo sapiens, UniProt P00491)
# T3 construct: endogenous in cells; host or cells: HeLa cell extract
# T3 sequence (P00491 1-289): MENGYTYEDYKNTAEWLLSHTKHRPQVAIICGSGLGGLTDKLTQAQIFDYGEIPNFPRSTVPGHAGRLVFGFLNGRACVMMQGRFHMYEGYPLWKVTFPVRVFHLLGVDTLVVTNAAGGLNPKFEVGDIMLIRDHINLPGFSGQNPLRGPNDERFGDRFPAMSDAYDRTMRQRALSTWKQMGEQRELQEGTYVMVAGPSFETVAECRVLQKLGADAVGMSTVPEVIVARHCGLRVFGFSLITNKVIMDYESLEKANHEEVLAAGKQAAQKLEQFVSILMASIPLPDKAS
# [4] = biological target: T4, HeLa cell extract proteins (Homo sapiens, UniProt P46977)
# T4 construct: endogenous in cells; host or cells: HeLa cell extract
# T4 sequence (P46977 1-705): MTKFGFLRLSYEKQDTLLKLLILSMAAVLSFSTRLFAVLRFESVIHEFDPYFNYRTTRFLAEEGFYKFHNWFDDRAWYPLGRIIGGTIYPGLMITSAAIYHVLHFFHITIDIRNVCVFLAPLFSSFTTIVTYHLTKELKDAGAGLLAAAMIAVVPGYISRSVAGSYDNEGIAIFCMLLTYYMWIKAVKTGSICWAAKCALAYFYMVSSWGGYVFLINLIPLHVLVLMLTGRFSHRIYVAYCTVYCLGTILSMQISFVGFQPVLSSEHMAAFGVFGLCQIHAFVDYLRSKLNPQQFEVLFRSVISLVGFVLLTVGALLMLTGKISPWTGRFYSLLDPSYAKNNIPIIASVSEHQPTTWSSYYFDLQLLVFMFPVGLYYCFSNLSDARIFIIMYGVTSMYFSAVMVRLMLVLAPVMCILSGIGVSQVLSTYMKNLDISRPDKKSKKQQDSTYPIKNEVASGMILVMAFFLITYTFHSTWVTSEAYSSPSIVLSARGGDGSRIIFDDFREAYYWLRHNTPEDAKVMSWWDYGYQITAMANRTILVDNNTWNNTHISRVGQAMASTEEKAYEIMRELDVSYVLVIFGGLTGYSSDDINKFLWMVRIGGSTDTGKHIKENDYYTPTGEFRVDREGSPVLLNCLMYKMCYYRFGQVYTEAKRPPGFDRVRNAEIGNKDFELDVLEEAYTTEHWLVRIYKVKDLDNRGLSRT
# [5] = biological target: T5, HeLa cell extract proteins (Homo sapiens, UniProt O95163)
# T5 construct: endogenous in cells; host or cells: HeLa cell extract
# T5 sequence (O95163 1-1332): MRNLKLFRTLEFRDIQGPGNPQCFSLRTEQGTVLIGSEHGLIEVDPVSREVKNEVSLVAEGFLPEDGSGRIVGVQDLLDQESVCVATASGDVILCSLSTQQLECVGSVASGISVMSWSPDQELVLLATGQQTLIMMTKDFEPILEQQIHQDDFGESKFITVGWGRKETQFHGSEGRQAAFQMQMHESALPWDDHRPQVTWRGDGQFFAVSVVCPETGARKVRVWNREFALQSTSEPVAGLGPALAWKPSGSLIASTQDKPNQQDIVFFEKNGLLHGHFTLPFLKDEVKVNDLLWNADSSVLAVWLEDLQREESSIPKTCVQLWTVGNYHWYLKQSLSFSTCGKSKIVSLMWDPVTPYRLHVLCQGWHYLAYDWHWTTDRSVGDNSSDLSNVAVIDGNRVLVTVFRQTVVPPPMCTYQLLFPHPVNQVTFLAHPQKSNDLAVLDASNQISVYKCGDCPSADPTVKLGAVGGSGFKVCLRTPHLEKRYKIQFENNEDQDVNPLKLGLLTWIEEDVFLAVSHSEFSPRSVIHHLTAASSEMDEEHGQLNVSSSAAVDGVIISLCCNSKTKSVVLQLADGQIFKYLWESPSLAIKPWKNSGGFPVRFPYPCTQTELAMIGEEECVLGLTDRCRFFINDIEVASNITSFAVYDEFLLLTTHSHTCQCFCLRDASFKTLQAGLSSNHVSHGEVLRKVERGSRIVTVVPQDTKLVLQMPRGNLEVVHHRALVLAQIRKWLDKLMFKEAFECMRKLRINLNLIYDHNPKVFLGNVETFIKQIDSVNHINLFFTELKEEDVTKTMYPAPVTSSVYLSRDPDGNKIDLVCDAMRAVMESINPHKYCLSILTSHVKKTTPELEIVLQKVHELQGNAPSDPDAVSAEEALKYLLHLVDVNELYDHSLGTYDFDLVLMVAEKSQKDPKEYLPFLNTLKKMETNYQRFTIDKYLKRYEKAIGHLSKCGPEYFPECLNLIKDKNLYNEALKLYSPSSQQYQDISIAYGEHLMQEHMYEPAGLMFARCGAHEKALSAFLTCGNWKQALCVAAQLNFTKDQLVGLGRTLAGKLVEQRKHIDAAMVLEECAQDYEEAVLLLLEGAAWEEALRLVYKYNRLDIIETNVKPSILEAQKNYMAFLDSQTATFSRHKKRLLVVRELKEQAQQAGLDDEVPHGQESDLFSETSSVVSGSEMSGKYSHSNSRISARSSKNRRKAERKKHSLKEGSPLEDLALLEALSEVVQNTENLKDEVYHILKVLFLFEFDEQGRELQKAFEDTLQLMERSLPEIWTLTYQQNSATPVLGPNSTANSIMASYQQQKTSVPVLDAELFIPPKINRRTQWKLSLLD
# [6] = biological target: T6, HeLa cell extract proteins (Homo sapiens, UniProt P16152)
# T6 construct: endogenous in cells; host or cells: HeLa cell extract
# T6 sequence (P16152 1-277): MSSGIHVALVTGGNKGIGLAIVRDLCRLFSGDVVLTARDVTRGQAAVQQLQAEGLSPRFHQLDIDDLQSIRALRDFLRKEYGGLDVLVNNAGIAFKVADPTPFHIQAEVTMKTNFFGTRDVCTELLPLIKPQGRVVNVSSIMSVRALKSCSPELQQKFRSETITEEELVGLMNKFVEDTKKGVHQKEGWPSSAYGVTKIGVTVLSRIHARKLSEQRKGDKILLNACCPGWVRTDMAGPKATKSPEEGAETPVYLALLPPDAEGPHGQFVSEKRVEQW
# [7] = HeLa, protein ZC3H11A (ZINC FINGER CCCH DOMAIN-CONTAINING PROTEIN 11A)
# T1 sequence (O75152 whole entry): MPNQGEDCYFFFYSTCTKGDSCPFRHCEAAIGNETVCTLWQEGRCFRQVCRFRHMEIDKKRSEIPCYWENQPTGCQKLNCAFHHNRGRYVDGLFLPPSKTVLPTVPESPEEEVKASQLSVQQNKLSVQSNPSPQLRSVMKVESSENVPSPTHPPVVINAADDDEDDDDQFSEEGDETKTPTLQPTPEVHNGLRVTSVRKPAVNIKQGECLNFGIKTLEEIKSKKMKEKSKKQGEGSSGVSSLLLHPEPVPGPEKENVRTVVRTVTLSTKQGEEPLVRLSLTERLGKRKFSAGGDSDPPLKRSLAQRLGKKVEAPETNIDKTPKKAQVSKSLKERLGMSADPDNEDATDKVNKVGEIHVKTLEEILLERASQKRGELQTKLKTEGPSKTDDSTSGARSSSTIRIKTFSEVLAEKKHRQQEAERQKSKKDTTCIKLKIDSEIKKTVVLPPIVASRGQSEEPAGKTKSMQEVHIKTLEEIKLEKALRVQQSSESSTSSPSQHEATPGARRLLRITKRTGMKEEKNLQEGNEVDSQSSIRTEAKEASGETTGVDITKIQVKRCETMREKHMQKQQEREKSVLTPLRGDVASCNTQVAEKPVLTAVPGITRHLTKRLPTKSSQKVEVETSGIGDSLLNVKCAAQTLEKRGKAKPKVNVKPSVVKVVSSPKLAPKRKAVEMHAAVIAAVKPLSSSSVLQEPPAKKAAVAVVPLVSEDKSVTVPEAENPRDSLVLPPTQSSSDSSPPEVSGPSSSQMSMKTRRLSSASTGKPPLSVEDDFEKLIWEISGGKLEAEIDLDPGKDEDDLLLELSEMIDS
Compound,"fold changes relative to vehicle control ([1]; captured protein ZC3H11A, HeLa)","fold changes relative to vehicle control ([2]; protein PRDX1, HeLa)","fold changes relative to vehicle control ([3]; protein NP, HeLa)","fold changes relative to vehicle control ([4]; HeLa, protein STT3A)","fold changes relative to vehicle control ([5]; protein IKBKAP, HeLa)","fold changes relative to vehicle control ([6]; HeLa, protein CBR1)","fold changes relative to vehicle control [1, 7]","fold changes relative to vehicle control ([2]; HeLa, protein PRDX1)","fold changes relative to vehicle control ([5]; HeLa, captured protein IKBKAP)","fold changes relative to vehicle control ([6]; protein CBR1, HeLa)",fold changes relative to vehicle control [1],fold changes relative to vehicle control [2],fold changes relative to vehicle control [3],fold changes relative to vehicle control [4],fold changes relative to vehicle control [5],fold changes relative to vehicle control [6]
CCCCCCOc1cccc(Cc2cnc(N)nc2N)c1 [compound 2],1.01,2.05,1.4,1.08,1.3,1.14,–,–,–,–,–,–,–,–,–,–
NCCOCCOCC(=O)Nc1nc2ncc(CNc3ccc(C(=O)NC(CCC(=O)O)C(=O)O)cc3)nc2c(=O)[nH]1 (stereo not drawn) [compound 6],–,–,1.08,0.96,–,–,0.92,1.1,1.2,0.89,–,–,–,–,–,–
CCCCCCOc1ccc(Cc2cnc(N)nc2N)cc1 [compound 1],0.95,1.24,1.16,0.96,1.33,0.89,–,–,–,–,–,–,–,–,–,–
"Nc1nc2c(c(=O)[nH]1)N(C=O)C(CNc1ccc(C(=O)N[C@@H](CCC(=O)O)C(=O)O)cc1)CN2 (stereo partly drawn) [LEU, leucovorin]",–,–,0.9,1.1,–,–,1.06,1.01,1.15,0.81,–,–,–,–,–,–
NCCCNc1ccc(C(=O)NC(CCC(=O)O)C(=O)O)cc1 (stereo not drawn) [compound 7],–,–,0.89,0.93,–,–,1.01,0.87,1.01,0.92,–,–,–,–,–,–
"Nc1nc2[nH]cc(CCc3ccc(C(=O)N[C@@H](CCC(=O)O)C(=O)O)cc3)c2c(=O)[nH]1 [PTX, pemetrexed]",–,–,–,–,–,–,–,–,–,–,0.96,1.05,0.89,0.89,1.11,0.8
Nc1nc2cccc(-c3ccccc3)c2n1Cc1ccc(Cl)c(Cl)c1 [compound 3],0.94,0.85,0.96,1.36,1.12,1.02,–,–,–,–,–,–,–,–,–,–
